Measured values published in the supplement of paper PMC10307832.

Key:
Assay in all cases: relative viability (nuclei count vs DMSO), 5 days (fraction); higher = more cells survive
XMD14-99 + Linsitinib = compound: CN1CCN(CC1)C2=CC(=C(C=C2)NC3=NC(=C(S3)C(=O)C4=C(C=CC=C4Cl)Cl)N)OC [XMD14-99] + C[C@]1(O)C[C@@H](c2nc(-c3ccc4ccc(-c5ccccc5)nc4c3)c3c(N)nccn32)C1 [Linsitinib] (partner 1 µM)
Method in brief: (§1)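 For relative viability, nuclei counts in treated wells were divided by those in vehicle wells. Lung cancer cell lines had been pin-tool dosed in 1536-well plates the day after seeding and cultured for 5 days, then fixed and stained in one step (final 0.05% Triton X-100, 1% formaldehyde, 1 ug/ml Hoechst) and imaged at 4×. Doses were one drug alone or a fixed anchor-drug dose plus five library-drug doses (not always all listed) in √10 steps, and values are duplicate-plate medians.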

AZD1208 + Dasatinib = compound: N[C@@H]1CCCN(c2c(/C=C3\SC(=O)NC3=O)cccc2-c2ccccc2)C1 [AZD1208] + Cc1nc(Nc2ncc(C(=O)Nc3c(C)cccc3Cl)s2)cc(N2CCN(CCO)CC2)n1 [Dasatinib] (partner 0.075 µM)
Method in brief: as §1

XMD14-99 + Bortezomib = compound: CN1CCN(CC1)C2=CC(=C(C=C2)NC3=NC(=C(S3)C(=O)C4=C(C=CC=C4Cl)Cl)N)OC [XMD14-99] + CC(C)C[C@H](NC(=O)[C@H](Cc1ccccc1)NC(=O)c1cnccn1)B(O)O [Bortezomib] (partner 0.002 µM)
Method in brief: as §1

AZD1208 + Palbociclib = compound: N[C@@H]1CCCN(c2c(/C=C3\SC(=O)NC3=O)cccc2-c2ccccc2)C1 [AZD1208] + CC(=O)c1c(C)c2cnc(Nc3ccc(N4CCNCC4)cn3)nc2n(C2CCCC2)c1=O [Palbociclib] (partner 0.5 µM)
Method in brief: as §1

Cell Line | relative viability (XMD14-99 + Linsitinib; first compound 0.08 µM) | relative viability (XMD14-99 + Linsitinib; first compound 0.8 µM) | relative viability (XMD14-99 + Linsitinib; first compound 2.53 µM) | relative viability (XMD14-99 + Linsitinib; first compound 8 µM) | relative viability (AZD1208 + Dasatinib; first compound 0.08 µM) | relative viability (AZD1208 + Dasatinib; first compound 0.253 µM) | relative viability (AZD1208 + Dasatinib; first compound 0.8 µM) | relative viability (AZD1208 + Dasatinib; first compound 2.53 µM) | relative viability (AZD1208 + Dasatinib; first compound 8 µM) | relative viability (XMD14-99 + Bortezomib; first compound 0.08 µM) | relative viability (XMD14-99 + Bortezomib; first compound 0.8 µM) | relative viability (XMD14-99 + Bortezomib; first compound 2.53 µM) | relative viability (XMD14-99 + Bortezomib; first compound 8 µM) | relative viability (AZD1208 + Palbociclib; first compound 0.08 µM) | relative viability (AZD1208 + Palbociclib; first compound 0.253 µM) | relative viability (AZD1208 + Palbociclib; first compound 0.8 µM) | relative viability (AZD1208 + Palbociclib; first compound 2.53 µM) | relative viability (AZD1208 + Palbociclib; first compound 8 µM)
LXF-289 | 0.894 | 0.926 | 0.939 | 0.798 | 0.227 | 0.175 | 0.195 | 0.181 | 0.15 | 1.04 | 0.978 | 0.945 | 0.841 | 0.587 | 0.639 | 0.583 | 0.622 | 0.635
NCI-H23 | 0.516 | 0.617 | 0.59 | 0.527 | 0.641 | 0.887 | 0.668 | 0.714 | 0.614 | 0.95 | 0.908 | 1.12 | 0.728 | 0.491 | 0.478 | 0.462 | 0.477 | 0.356
NCI-H322M | 0.903 | 0.959 | 0.951 | 0.845 | 0.261 | 0.235 | 0.23 | 0.224 | 0.228 | 1.12 | 1.33 | 1.44 | 1.24 | 0.488 | 0.467 |  | 0.5 | 0.502
NCI-H441 | 0.719 | 0.52 | 0.528 | 0.382 | 0.593 | 0.486 | 0.425 | 0.55 | 0.437 | 0.562 | 0.653 | 0.473 | 0.587 | 0.192 | 0.196 | 0.204 | 0.178 | 0.23
NCI-H460 | 0.685 | 0.77 | 0.61 | 0.331 | 0.54 | 0.562 | 0.473 | 0.365 | 0.334 | 1.06 | 1.15 | 0.983 | 0.784 | 0.195 | 0.19 | 0.223 | 0.15 | 0.159
NCI-H520 | 1.08 | 0.972 | 1 | 0.657 | 0.151 | 0.196 | 0.173 | 0.154 | 0.178 | 0.622 | 0.604 | 0.425 | 0.279 | 0.188 | 0.195 | 0.146 | 0.205 | 0.186
NCI-H647 | 1.25 | 1.12 | 1.27 | 0.929 | 0.119 | 0.226 | 0.106 | 0.132 | 0.169 | 0.914 | 1.04 | 0.928 | 0.745 | 0.322 | 0.486 | 0.324 | 0.397 | 0.304
NCI-H650 | 1.08 | 0.906 | 0.77 | 0.675 | 0.509 | 0.451 | 0.385 | 0.379 | 0.338 | 0.97 | 0.847 | 0.724 | 0.649 | 0.309 | 0.287 | 0.314 | 0.29 | 0.289
NCI-H661 | 0.5 | 0.58 | 0.502 | 0.441 | 0.95 | 0.98 | 0.864 | 0.777 | 0.902 | 0.708 | 0.669 | 0.793 | 0.674 | 0.418 | 0.394 | 0.428 | 0.414 | 0.4
NCI-H727 | 0.303 | 0.284 | 0.247 | 0.297 | 0.315 | 0.322 | 0.315 | 0.313 | 0.314 | 0.895 | 0.827 | 0.625 | 0.575 | 0.597 | 0.628 | 0.64 | 0.614 | 0.56
NCI-H838 | 0.948 | 0.932 | 0.92 | 0.681 | 0.329 | 0.365 | 0.272 | 0.311 | 0.274 | 0.826 | 0.828 | 0.674 | 0.491 | 0.21 | 0.231 | 0.209 | 0.187 | 0.201
NCI-H1355 | 0.796 | 0.809 | 0.74 | 0.633 | 0.732 | 0.55 | 0.628 | 0.641 | 0.48 | 1.31 | 1.2 | 1.15 | 0.898 | 0.396 | 0.37 | 0.372 | 0.385 | 0.318
NCI-H1437 | 0.961 | 0.983 | 0.735 | 0.387 | 0.495 | 0.297 | 0.337 | 0.296 | 0.337 | 0.519 | 0.408 | 0.323 | 0.287 | 0.288 | 0.353 | 0.302 | 0.263 | 0.291
NCI-H1651 | 0.941 | 0.886 | 0.904 | 0.84 | 0.406 | 0.461 | 0.38 | 0.319 | 0.307 | 0.964 | 0.938 | 0.981 | 0.811 | 0.527 | 0.535 |  | 0.473 | 0.459
NCI-H1666 | 0.809 | 0.834 | 0.704 | 0.625 | 0.843 | 0.829 | 0.828 | 0.763 | 0.834 | 0.872 | 0.782 | 0.825 | 0.629 | 0.62 | 0.672 | 0.607 | 0.605 | 0.672
NCI-H1734 | 0.854 | 0.897 | 0.823 | 0.745 | 0.41 | 0.435 | 0.426 | 0.393 | 0.307 | 0.873 | 0.847 | 0.822 | 0.707 | 0.312 | 0.32 | 0.313 | 0.325 | 0.255
NCI-H1755 | 1.02 | 0.989 | 1.02 | 0.736 | 0.422 | 0.407 | 0.345 | 0.339 | 0.209 | 0.854 | 0.947 | 0.859 | 0.795 | 0.439 | 0.459 | 0.437 | 0.458 | 0.385
NCI-H1792 | 0.637 | 0.522 | 0.432 | 0.311 | 0.722 | 0.595 | 0.647 | 0.675 | 0.55 | 0.982 | 0.888 | 0.849 | 0.66 | 0.697 | 0.663 | 0.616 | 0.587 | 0.554
